Source: the supplement of paper PMC3937590

What was measured:
Assay in all cases: -log10 GI50 (growth inhibition 50%) (-log10(M)); higher = more potent growth inhibition
BT483 = test system: BT483
In short: (§1)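 The reported figure is the negative logarithm of GI50, defined as the molar concentration that produces the set level of growth inhibition. The logarithm is base 10. It comes from a Gompertz curve fitted by nonlinear least squares to 72-hour luminescence data from breast cancer cell lines given nine doses in 1:5 serial dilution, in triplicate, with a time-zero plate as reference. A < qualifier marks values equal to the top dose.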

SUM185PE = test system: SUM185PE
In short: as §1

184A1 = test system: 184A1
In short: as §1

SUM159PT = test system: SUM159PT
In short: as §1

BT20 = test system: BT20
In short: as §1

HCC1937 = test system: HCC1937
In short: as §1

600MPE = test system: 600MPE
In short: as §1

HCC70 = test system: HCC70
In short: as §1

MDAMB175VII = test system: MDAMB175VII
In short: as §1

MDAMB157 = test system: MDAMB157
In short: as §1

HCC1187 = test system: HCC1187
In short: as §1

MCF7 = test system: MCF7
In short: as §1

AU565 = test system: AU565
In short: as §1

MCF10A = test system: MCF10A
In short: as §1

BT474 = test system: BT474
In short: as §1

SUM52PE = test system: SUM52PE
In short: as §1

MDAMB361 = test system: MDAMB361
In short: as §1

BT549 = test system: BT549
In short: as §1

MDAMB453 = test system: MDAMB453
In short: as §1

SKBR3 = test system: SKBR3
In short: as §1

HCC1143 = test system: HCC1143
In short: as §1

HCC3153 = test system: HCC3153
In short: as §1

T47D_KBluc = test system: T47D_KBluc
In short: as §1

HCC1569 = test system: HCC1569
In short: as §1

HCC1806 = test system: HCC1806
In short: as §1

ZR75B = test system: ZR75B
In short: as §1

LY2 = test system: LY2
In short: as §1

MDAMB415 = test system: MDAMB415
In short: as §1

CAMA1 = test system: CAMA1
In short: as §1

HCC1419 = test system: HCC1419
In short: as §1

SUM225CWN = test system: SUM225CWN
In short: as §1

ZR751 = test system: ZR751
In short: as §1

T47D = test system: T47D
In short: as §1

MCF10F = test system: MCF10F
In short: as §1

HS578T = test system: HS578T
In short: as §1

MDAMB231 = test system: MDAMB231
In short: as §1

HCC1954 = test system: HCC1954
In short: as §1

HCC1395 = test system: HCC1395
In short: as §1

HCC38 = test system: HCC38
In short: as §1

MX1 = test system: MX1
In short: as §1

MDAMB134VI = test system: MDAMB134VI
In short: as §1

HBL100 = test system: HBL100
In short: as §1

SUM149PT = test system: SUM149PT
In short: as §1

MCF12A = test system: MCF12A
In short: as §1

HCC2185 = test system: HCC2185
In short: as §1

HCC1428 = test system: HCC1428
In short: as §1

SUM1315MO2 = test system: SUM1315MO2
In short: as §1

HCC202 = test system: HCC202
In short: as §1

184B5 = test system: 184B5
In short: as §1

SUM229PE = test system: SUM229PE
In short: as §1

COc1cc([C@@H]2c3cc4c(cc3[C@@H](O[C@@H]3O[C@@H]5CO[C@@H](C)O[C@H]5[C@H](O)[C@H]3O)[C@H]3COC(=O)[C@H]23)OCO4)cc(OC)c1O [Etoposide]
-log10 GI50 (BT483): 5.37
-log10 GI50 (SUM185PE): 5.31
-log10 GI50 (184A1): 5.08
-log10 GI50 (SUM159PT): 6.11
-log10 GI50 (BT20): 5.48
-log10 GI50 (HCC1937): 5.34
-log10 GI50 (600MPE): 5.26
-log10 GI50 (HCC70): 4.89
-log10 GI50 (MDAMB175VII): 4.19
-log10 GI50 (MDAMB157): 6.02
-log10 GI50 (HCC1187): 6.21
-log10 GI50 (MCF7): 5.13
-log10 GI50 (AU565): 6.2
-log10 GI50 (MCF10A): 5.43
-log10 GI50 (BT474): 4.63
-log10 GI50 (SUM52PE): 5.59
-log10 GI50 (MDAMB361): 4.85
-log10 GI50 (BT549): 5.89
-log10 GI50 (MDAMB453): 5.3
-log10 GI50 (SKBR3): 5.92
-log10 GI50 (HCC1143): 5.29
-log10 GI50 (HCC3153): 5.57
-log10 GI50 (T47D_KBluc): 5.79
-log10 GI50 (HCC1569): 4.2
-log10 GI50 (HCC1806): 5.51
-log10 GI50 (ZR75B): 6.06
-log10 GI50 (LY2): < 3.48
-log10 GI50 (MDAMB415): 4.56
-log10 GI50 (CAMA1): 5.31
-log10 GI50 (HCC1419): 4.18
-log10 GI50 (SUM225CWN): 4.99
-log10 GI50 (ZR751): 5.68
-log10 GI50 (T47D): 5.99
-log10 GI50 (MCF10F): 6.13
-log10 GI50 (HS578T): 5.22
-log10 GI50 (MDAMB231): 5.69
-log10 GI50 (HCC1954): 6.01
-log10 GI50 (HCC1395): 5.53
-log10 GI50 (HCC38): 6.54
-log10 GI50 (MX1): 6.34
-log10 GI50 (MDAMB134VI): 5.61
-log10 GI50 (HBL100): 5.67
-log10 GI50 (SUM149PT): 5.58
-log10 GI50 (MCF12A): 6.44
-log10 GI50 (HCC2185): 5.11
-log10 GI50 (HCC1428): 4.47
-log10 GI50 (SUM1315MO2): 6.61
-log10 GI50 (HCC202): 6.03
-log10 GI50 (184B5): 5.06
-log10 GI50 (SUM229PE): 6.04
